In US20220378773A1, “METHODS FOR TREATING LEUKEMIA AND USE OF A LEUKEMIC STEM CELL SIGNATURE TO PREDICT CLINICAL SENSITIVITY TO THERAPIES” (CELGENE CORPORATION, priority 2019, published 2022):
“And” between values parts separate entries of the source, which are not always exact repeats. Equal entries are not always repeated.

Tests used:
[1] = Tolerability and body weight of AML xenograft mice; type: in vivo, NOD/SCID mice
Method: Treatment and Assay Procedure: At Day 21 post AML transplantation, mice were randomly grouped and dosed with either Compound D at 2.5 mg/kg or vehicle (5% N-methyl-2-pyrrolidone [NMP]/45% polyethylene glycol [PEG] 400/50% saline), intraperitoneally twice daily in a dose volume of 50 μL for 4 weeks. All animals were euthanized at scheduled termination (1 day after the last treatment) and bone marrow was collected from the right femur (injected bone marrow) and the left femur and left and right tibia (non-injected bone marrow). Cells isolated from injected or non-injected bone marrow were analyzed by flow cytometry to assess AML engraftment, and were viably frozen for future secondary engraftment analysis.
Based on the pilot data (FIG. 4) in which one of the 2 samples responded to Compound D dosing at 2.5 mg/kg BID for 2 weeks, the duration of dosing was extended to 4 weeks to determine if the mice could tolerate longer Compound D dosing. Mice transplanted with 3 different AML samples were closely monitored for clinical conditions during treatment.

[2] = tested on: AML graft; assay: In vivo apoptosis and cell death (propidium iodide staining); parameters: species or system NOD/SCID mice; settings: after 4 weeks treatment
Source text: After treatment finished, cells were harvested from both injected right femur (RF) and non-injected bone marrow (BM, including left femur, 2 tibias), and stained with human antibodies to assess the engraftment levels of AML. Antibodies used for staining included: Mouse anti-human CD45-APC, CD15-FITC, CD34-APC7, CD38-PC7 (BD Biosciences, USA), CD14-PE, CD33-PC5 (Beckman Coulter, USA), CD19-V450, CD19-AF700, CD11b-APC7, CD34-BV421 (BD Biosciences, USA), and propidium iodide (PI; Invitrogen, USA).
Following 4 weeks Compound D treatment, harvested cells were stained with propidium iodide (PI) for detecting apoptotic and dead leukemia cells. […] To determine whether GSPT1 can also be degraded by Compound D administration in vivo, leukemia cells were harvested after 3 doses of Compound D treatment for intracellular flow cytometry to assess the levels of GSPT1 in both injected RF and non-injected BM. […] It seems that Compound D degraded GSPT1 more profoundly in the injected RF than in non-injected BM. More samples had lesser GSPT1 reduction in the non-injected BM than in RF. Perhaps this reflects differences in the niche or blood supply between these sites; intrafemoral (IF) injection involves reaming out the femoral cavity prior to cell injection. […]

[3] = tested on: AML graft (human CD45+CD33+ cells); assay: AML xenograft efficacy, 2.5 mg/kg IP twice daily; type: in vivo, NOD/SCID mice; settings: AML Patient 90668; 500,000 cells per mouse; dosing from Day 21
[4] = tested on: normal cord blood-derived human graft; parameters: species or system NOD/SCID mice; settings: mouse, in vivo
Method: Normal cord blood experiment was carried out similar to what has been described as above but using CD34+ cells isolated from normal cord blood. Two or three normal donors were pulled together to generate enough cells for each of the CB engraftments, termed CB1 and CB2.
Compound D toxicity on normal hematopoietic cells was investigated using CB samples. Mice were transplanted with two different CB samples (CB1 and CB2) and dosed with 2.5 mg/kg Compound D or vehicle control BID intraperitoneally. Flow cytometric analyses from a representative mouse from the vehicle- and Compound D-treated groups are shown in FIG. 8A and FIG. 8B, respectively.

O=C1CCC(N2Cc3cc(CNC(=O)C(F)(F)c4ccc(Cl)cc4)ccc3C2=O)C(=O)N1 (stereo not drawn) [Compound D, 2-(4-chlorophenyl)-N-((2-(2,6-dioxopiperidin-3-yl)-1-oxoisoindolin-5-yl)methyl)-2,2-difluoroacetamide]
tolerability ([1]; 4 weeks of treatment, mice with different primary AML samples): well tolerated
Body weight, Week 1, average (mean) ([1]; group mean): Avg = 21.8
Body weight, Week 2, average (mean) ([1]; group mean): Avg = 21.7
Body weight, Week 3, average (mean) ([1]; group mean): Avg = 21.6
Body weight, Week 1 ([1]; individual mice): 21 g (5×) and 23 g (2×) and 20 g (2×) and 22 g (4×) and 24 g (2×)
Body weight, Week 2 ([1]; individual mice): 22 g (3×) and 20 g (3×) and 24 g (2×) and 23 g (3×) and 19 g and 21 g (3×)
Body weight, Week 3 ([1]; individual mice): 23 g and 21 g (4×) and 19 g and 22 g (5×) and 24 g (2×) and 20 g (2×)
paralysis / death ([1]; mouse transplanted with Patient Sample 120860, last day of 4-week treatment): Only one Compound D-treated mouse was found paralyzed
number of PI+ events in mouse bone marrow [2]: significantly increased
survival [3]: did not improve survival
human graft remaining after treatment ([4]; NOD/SCID, 4 weeks): 5-10%
percentage of CD34+ cells ([4]; NOD/SCID, 4 weeks): did not decrease the percentage of CD34+ cells
CD34+CD19+ primitive lymphoid cells [4]: significantly decreased
CD34+CD33+ primitive myeloid cells [4]: not targeted
absolute number of CD34+ cells [4]: significantly reduced
number of CD19+ lymphocytes [4]: significantly decreased
percentages of CD34+CD38− primary cells [4]: not specifically targeted
proportion of CD33+ myeloid cells [4]: increased
